Test system: Male NMRI mice
Test: phenylquinone-induced writhing test in mice
Format: in vivo
Details: 10 minutes before phenylquinone i.p., writhing counted 5-20 minutes after phenylquinone; for inhibition in vivo at 10 mg/kg: Mus musculus, iv, 10 mg/kg i.v., read-out: % inhibition of the writhing reactions (10 mg/kg i.v.); for % inhibition of the writhing reactions (10 mg/kg i.v.): mouse writhing test
Experimental: The antinociceptive activity of the compounds according to the invention was investigated in mice in the phenylquinone-induced writhing test, modified by I.C. Hendershot, J. Forsaith, J. Pharmacol. Exp. Ther. 125, 237-240 (1959). Male NMRI mice weighing 25-30 g were used. Groups of 10 animals per substance dose received 0.3 ml/mouse of a 0.02% aqueous solution of phenylquinone (phenylbenzoquinone, Sigma, Deisenhofen; preparation of the solution with the addition of 5% ethanol and storage in a water bath at 45° C.) administered intraperitoneally 10 minutes after intravenous administration of a compound according to the invention. The animals were placed individually in observation cages. The number of pain-induced stretching movements (so-called writhing reactions, that is straightening of the body with stretching of the hind extremities) was counted by means of a push-button counter for 5-20 minutes after the administration of phenylquinone. Animals which received physiological saline solution i.v. and phenylquinone […]. were also run as a control.
All substances were tested in the standard dose of 10 mg/kg. The percentage inhibition (% inhibition) of the writhing reactions by a substance was calculated according to the following equation:
% inhibition=100−(WRtreated animals/WRcontrol×100)

SMILES | inhibition in vivo at 10 mg/kg [%] | % inhibition of the writhing reactions (10 mg/kg i.v.) [%]
COc1cccc(C2=C/C(=C\c3cccc(CO)c3)CCC2CN(C)C)c1 (centres unmarked) [Compound 25, Z-{3-[4-Dimethylaminomethyl-3-(3-methoxy-phenyl)-cyclohex-2-enylidenemethyl]-phenyl}-methanol] | 100 | –
COC(=O)c1cccc(C=C2CCC(CN(C)C)C(c3cccc(OC)c3)C2)c1 (racemic) [Compound 8, rac-trans-E-3-[4-dimethylaminomethyl-3-(3-methoxy-phenyl)-cyclohexylidenemethyl]-benzoic acid methyl ester] | 98 | –
CN(C)C[C@@H]1CC/C(=C\c2cccc(CO)c2)C[C@H]1c1cccc(O)c1 (racemic) [Compound 19, rac-trans-E-3-[2-dimethylaminomethyl-5-(3-hydroxymethyl-benzylidene)-cyclohexyl]-phenol] | 82 | –
CN(C)C[C@@H]1CC/C(=C/c2ccccc2)C[C@H]1c1cccc(O)c1 (racemic) [Compound 23, rac-trans-Z-3-(5-Benzylidene-2-dimethylaminomethyl-cyclohexyl)-phenol] | 88 | –
CCN(CC)C(=O)c1cccc(/C=C2\CC[C@H](CN(C)C)[C@H](c3cccc(OC)c3)C2)c1.Cl (racemic) [Compound 35, rac-cis-E-3-[4-Dimethylaminomethyl-3-(3-methoxy-phenyl)-cyclohexylidenemethyl]-N,N-diethyl-benzamide] | – | 100
CN(C)CC1CC/C(=C\c2cccc(CO)c2)C=C1c1cccc(O)c1 (centres unmarked) [Compound 22, E-3-[6-Dimethylaminomethyl-3-(3-hydroxymethyl-benzylidene)-cyclohex-1-enyl]-phenol] | 93 | –
CCOC(=O)c1cccc(/C=C2/CC[C@H](CN(C)C)[C@H](c3cccc(OC)c3)C2)c1 (racemic) [Compound 30, rac-cis-Z-3-[4-Dimethylaminomethyl-3-(3-methoxy-phenyl)-cyclohexylidenemethyl]-benzoic acid ethyl ester] | 84 | –
CN(C)CC1=C(c2cccc(O)c2)C/C(=C\c2cccc(CO)c2)CC1 [Compound 24, Z-3-[2-dimethylaminomethyl-5-(3-hydroxymethyl-benzylidene)-cyclohex-1-enyl]-phenol] | 100 | –
COc1cccc(C2=C/C(=C/c3cccc(C(=O)OC(C)(C)C)c3)CCC2CN(C)C)c1 (centres unmarked) [Compound 21, E-3-[4-Dimethylaminomethyl-3-(3-methoxy-phenyl)-cyclohex-2-enylidenemethyl]-benzoic acid tert-butyl ester] | 79 | –
CCN(CC)C(=O)c1cccc(/C=C2\C=C(c3cccc(OC)c3)C(CN(C)C)CC2)c1 (centres unmarked) [Compound 34, Z-3-[4-Dimethylaminomethyl-3-(3-methoxy-phenyl)-cyclohex-2-enylidenemethyl]-N,N-diethyl-benzamide] | 78 | –
CCN(CC)C(=O)c1cccc(/C=C2\CCC(CN(C)C)C(c3cccc(OC)c3)C2)c1 (racemic) [Compound 32] | 100 | –
COc1cccc([C@@H]2C/C(=C/c3cccc(C(=O)O)c3)CC[C@@H]2CN(C)C)c1.Cl (racemic) [Compound 26, rac-cis-E-3-[4-Dimethylaminomethyl-3-(3-methoxy-phenyl)-cyclohexylidenemethyl]-benzoic acid] | – | 87
CN(C)C[C@@H]1CC/C(=C\c2ccccc2)C[C@H]1c1cccc(O)c1 (racemic) [Compound 20, rac-trans-E-3-(5-benzylidene-2-dimethylaminomethyl-cyclohexyl)-phenol] | 84 | –
COc1cccc(C2=C/C(=C\c3cccc(C(=O)OCC(C)C)c3)CCC2CN(C)C)c1 (centres unmarked) [Compound 39, Z-3-[4-Dimethylaminomethyl-3-(3-methoxy-phenyl)-cyclohex-2-enylidenemethyl]-benzoic acid isobutyl ester] | 78 | –
COc1cccc(C2=C/C(=C/c3cccc(C(=O)O)c3)CCC2CN(C)C)c1 (centres unmarked) [Compound 15, E-3-[4-Dimethylaminomethyl-3-(3-methoxy-phenyl)-cyclohex-2-enylidenemethyl]-benzoic acid] | 100 | –
COC(=O)c1cccc(/C=C2/C=C(c3cccc(O)c3)C(CN(C)C)CC2)c1 (centres unmarked) [Compound 37, E-3-[4-dimethylaminomethyl-3-(3-hydroxy-phenyl)-cyclohex-2-enylidenemethyl]-benzoic acid methyl ester] | 91 | –
COc1cccc([C@@H]2C/C(=C\c3cccc(C(=O)O)c3)CC[C@H]2CN(C)C)c1 (racemic) [Compound 17, rac-trans-Z-3-[4-Dimethylaminomethyl-3-(3-methoxy-phenyl)-cyclohexylidenemethyl]-benzoic acid] | 85 | –
CCOC(=O)c1cccc(/C=C2/C=C(c3cccc(OC)c3)C(CN(C)C)CC2)c1 (centres unmarked) [Compound 33, E-3-[4-Dimethylaminomethyl-3-(3-methoxy-phenyl)-cyclohex-2-enylidenemethyl]-benzoic acid ethyl ester] | 90 | –
CCN(CC)C(=O)c1cccc(/C=C2/CC[C@@H](CN(C)C)[C@H](c3cccc(OC)c3)C2)c1 (racemic) [Compound 36, rac-trans-Z-3-[4-Dimethylaminomethyl-3-(3-methoxy-phenyl)-cyclohexylidenemethyl]-N,N-diethyl-benzamide] | 100 | –
COc1cccc(C2=C/C(=C/c3cccc(CO)c3)CCC2CN(C)C)c1 (centres unmarked) [Compound 16, E-{3-[4-dimethylaminomethyl-3-(3-methoxy-phenyl)-cyclohex-2-enylidenemethyl]-phenyl}-methanol] | 98 | –
COc1cccc([C@@H]2C/C(=C/c3cccc(C(=O)O)c3)CC[C@H]2CN(C)C)c1 (racemic) [Compound 18, rac-trans-E-3-[4-Dimethylaminomethyl-3-(3-methoxy-phenyl)-cyclohexylidenemethyl]-benzoic acid] | 100 | –
COc1cccc(C2=C/C(=C\c3cccc(C(=O)O)c3)CCC2CN(C)C)c1 (centres unmarked) [Compound 14, Z-3-[4-Dimethylaminomethyl-3-(3-methoxy-phenyl)-cyclohex-2-enylidenemethyl]-benzoic acid] | 94 | –
CN(C)CC1CC/C(=C/c2cccc(C(=O)O)c2)C=C1c1cccc(O)c1 (centres unmarked) [Compound 48, Z-3-[4-Dimethylaminomethyl-3-(3-hydroxy-phenyl)-cyclohex-2-enylidenemethyl]-benzoic acid] | 98 | –

Reference: patent publication US6673794B2, “Substituted aminomethyl-phenyl-cyclohexane derivatives” (Gruenenthal GmbH, priority 2000, dated 2004)
